Measured values as given in patent US11291674B2 (CALITHERA BIOSCIENCES, INC., priority 2016, dated 2022).

Tests used:
4T1 cell line = experiment: Cytotoxicity assay (CellTiterGlo), 4T1; type: cell-based, murine; settings: 1 mM arginase inhibitor, 72 h
Method: (§1) Cytotoxicity assays. […] Cytotoxicity was assayed by the addition of CellTiterGlo reagent according to the manufacturer's instructions (Promega, Madison, Wis.) followed by […] quantification on a Molecular Devices plate reader (Sunnyvale, Calif.).

LLC tumors = LLC tumors in mice with conditional Arg1 deletion in the myeloid lineage; type: in vivo, mouse; settings: 100 mg/kg every 12 h for 14 days
Source text: Conditional Arg1 deleted mice. Arg1 floxed mice were crossed to the Tie2-Cre deleter strain (The Jackson Laboratory) as previously described. Experimental mice were generated from crossing Arg1^Flox/Flox; Tie2-Cre^+ males with Arg1^Flox/Flox; Tie2-Cre^+ females, with Cre negative littermates serving as wild-type controls. Mice were housed and used in accordance with protocols approved by the Institutional Animal Care and Use Committee at St. Jude Children's Research Hospital. LLC cells (1×10^6 per mouse) were injected s.c. in the flank region. […] Mice were euthanized, and tumors excised and weights recorded. Myeloid deletion of Arg1 was confirmed via western blotting of IL-4-stimulated bone marrow-derived macrophages for all animals.

B16.F10 tumor = experiment: Example 1: arginase inhibitor with adoptive immunotherapy, B16.F10 tumors; type: in vivo, mouse; settings: 100 mg/kg twice a day, vs adoptive T cell therapy only; survival P value 0.0137
Method: In order to test the effect of arginase inhibitors and adoptive immunotherapy on cancer progression, mice were inoculated with B16.F10 cells to generate a tumor. Approximately 1×10^6 cells were implanted in C57.Bl/6 mice. Mice were then treated with non-myeloablative chemotherapy (Cyclophosphamide 250 mg/kg and Fludarabine 50 mg/kg). Cyclophosphamide and Fludarabine were dosed via intraperitoneal injection on day 7 (FIG. 1A, orange arrow). Pme1-1 CD8 T cells (1×10^6) were intravenously transferred on day 8 (FIG. 1A, blue arrow). Recombinant human IL-2 (200,000 UI) was dosed via intraperitoneal injection twice a day on days 8, 9, 10 in mice receiving adoptive immunotherapy. […] Survival curves can be seen in FIG. 1C. P value is 0.0137, and was calculated by Mantel-Cox test. (N=9-10 per group).

CT26 lung metastases = experiment: Adoptive NK cell transfer study, CT26 lung metastasis model; type: in vivo, mouse; settings: compared to control groups, 14 days
Method: Adoptive NK cell transfer studies. Balb/c mice were inoculated i.v. with 1×10^5 CT26 cells. 1×10^6NK cells (isolated from Balb/c spleens the day before injection and incubated with recombinant IL-2 and IL-15 for 18 h) were transferred on the same day as tumor inoculation. The injected NK cells were profiled by flow cytometry to be CD25^+ and 80-90% pure with less than 0.4% T cells.

[1] = test system: granulocyte-mediated suppression of T cell proliferation; experiment: T cell/granulocyte co-culture assay, healthy donor; type: cell-based, human
Method: T cell and NK cell proliferation assays. T cells or NK cells were purified from healthy donor human blood or from murine splenocytes using a negative selection kit for the appropriate cell type and species from Stemcell Technologies. Isolated T cells or NK cells were loaded with carboxyfluorescein succinimidyl ester (CFSE, Thermo Fisher) and stimulated for 72-96 h in complete growth media containing a minimum of either 50 µM L-arginine (NK cells) or 100 μM L-arginine (T cells). […] Proliferation was quantified by analyzing CFSE dilution by flow cytometry (Guava flow cytometer, Millipore, Billerica, Mass. or Attune N×T flow cytometer, ThermoFisher).
T cell/myeloid cell co-culture assays. […] Granulocytes were incubated for 48 h at 37° C., during which time they spontaneously activate as determined by surface expression of CD66b and scatter properties. […] Co-cultures were incubated for 3-4 days, at which time media were analyzed for L-arginine and L-ornithine by mass spectrometry and T cell proliferation was determined by flow cytometry. […] Cytokines were quantified in the media from T cell co-culture assays using the Cytometric Bead Array kit according to the manufacturer's instructions (BD Biosciences).

CT26 cell line = experiment: Cytotoxicity assay (CellTiterGlo), CT26; type: cell-based, murine; settings: 1 mM arginase inhibitor, 72 h
Method: as §1

Which “Growth inhibition of 4T1 cell line” value (4T1 cell line) does the source give for C[C@H](N)C(=O)N1C[C@H](CCCB(O)O)[C@](N)(C(=O)O)C1 [arginase inhibitor] here?
The value was “No growth inhibition”.

What about the “Tumor growth in Arg flox/flox; Tie2-Cre+ (ARG1 ΔM) animals” value (LLC tumors) of the same compound?
Its value is “no further reduction in tumor growth”.

And the “Tumor volume over 25 days, combination with adoptive T cell therapy” value (B16.F10 tumor)?
Its value is “slower tumor progression”.

What about the “Lung metastases, combination with NK cells” value (CT26 lung metastases) of the same compound?
Its value is “significantly fewer lung metastases”.

What about the “T cell proliferation restored, of the proliferation observed for T cells without granulocytes” value ([1]; co-culture with healthy donor granulocytes) of the same compound?
Its value is 90%.

What about the “Depletion of L-arginine from the media by granulocytes” value ([1]; healthy donor granulocytes) of the same compound?
Its value is “blocked depletion of L-arginine”.

And the “Growth inhibition of CT26 cell line” value (CT26 cell line)?
The value was “No growth inhibition”.
